The source of these data is ChEMBL document CHEMBL3045258, “Benzimidazole, Benzoxazole and Benzothiazole Derivatives as 5HT2B Receptor Ligands. Synthesis and Preliminary Pharmacological Evaluation” (Med Chem Res, 2005).

Structures are written as SMILES. Active and inactive are the calls of the source. The rule behind the calls is not given here. Some results are limits rather than exact numbers.

Chain of 5-hydroxytryptamine receptor 2A (Rattus norvegicus) (P14842 whole entry): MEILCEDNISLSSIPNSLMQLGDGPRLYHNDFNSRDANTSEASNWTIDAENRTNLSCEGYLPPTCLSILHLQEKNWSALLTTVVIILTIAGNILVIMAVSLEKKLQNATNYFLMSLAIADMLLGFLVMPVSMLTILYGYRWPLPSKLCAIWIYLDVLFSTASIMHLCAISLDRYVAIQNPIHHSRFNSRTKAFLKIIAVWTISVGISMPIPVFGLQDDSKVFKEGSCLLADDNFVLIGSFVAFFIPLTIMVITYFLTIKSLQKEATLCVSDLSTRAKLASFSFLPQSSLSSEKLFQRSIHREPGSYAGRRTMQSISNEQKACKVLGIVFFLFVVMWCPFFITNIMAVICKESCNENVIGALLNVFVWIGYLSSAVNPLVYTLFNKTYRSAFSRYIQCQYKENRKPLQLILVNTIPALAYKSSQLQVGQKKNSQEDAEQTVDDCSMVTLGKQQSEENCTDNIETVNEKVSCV

The first assay deals with T1, 5-hydroxytryptamine receptor 2C (Rattus norvegicus) (UniProt P08909).
T1 sequence (whole entry): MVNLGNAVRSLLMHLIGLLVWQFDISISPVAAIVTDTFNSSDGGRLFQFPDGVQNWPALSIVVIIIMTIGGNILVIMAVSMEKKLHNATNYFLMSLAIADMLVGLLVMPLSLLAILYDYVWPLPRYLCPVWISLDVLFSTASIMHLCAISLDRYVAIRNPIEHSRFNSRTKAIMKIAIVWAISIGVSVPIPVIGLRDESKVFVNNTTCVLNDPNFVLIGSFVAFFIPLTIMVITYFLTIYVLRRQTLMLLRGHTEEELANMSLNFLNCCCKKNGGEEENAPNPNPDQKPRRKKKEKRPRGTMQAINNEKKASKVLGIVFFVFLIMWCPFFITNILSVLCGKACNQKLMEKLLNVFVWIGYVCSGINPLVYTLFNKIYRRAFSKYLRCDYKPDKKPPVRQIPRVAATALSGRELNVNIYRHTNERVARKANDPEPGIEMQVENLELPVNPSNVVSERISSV
The assay can be described thus: Displacement of [3H]mesulergine from 5-HT2C in Rattus norvegicus CD (rat) […] sections at 10 uM after 1 hr.
`OC(Cc1ccccc1)c1nc2ccccc2s1` (configuration not stated) gave an Activity of less than 5%.

`COc1ccc(CCc2nc3ccccc3[nH]2)cc1OC` had an Activity of less than 5%.

Regarding `NC(Cc1ccccc1)c1nc2ccccc2s1` (configuration not stated), the Activity is less than 5%.

For `c1ccc(CCc2nc3ccccc3s2)cc1`, the Activity was less than 5%.

As to `O/N=C(\Cc1ccccc1)c1cc2ccccc2[nH]1`, the Activity was less than 5%.

Molecule `CCNCc1nc2ccccc2[nH]1` came in with an Activity of less than 5%.

As for `OC(Cc1ccccc1)c1cc2ccccc2[nH]1` (configuration not stated), the Activity was less than 5%.

In the case of `CCNC(Cc1ccccc1)c1nc2ccccc2[nH]1` (configuration not stated), the Activity was less than 5%.

With `COc1ccc(CCc2nc3ccccc3o2)cc1OC`, the Activity was less than 5%.

Take `OC(Cc1ccccc1)c1nc2ccccc2o1` (configuration not stated): the Activity was less than 5%.

Consider `COc1ccc(CC(O)c2nc3ccccc3o2)cc1OC` (configuration not stated), for which the Activity is less than 5%.

Molecule `c1ccc(CCc2nc3ccccc3[nH]2)cc1` displayed an Activity of less than 5%.

`O=C(Cc1ccccc1)c1cc2ccccc2[nH]1`: the Activity is less than 5%.

`NC(Cc1ccccc1)c1cc2ccccc2[nH]1` (configuration not stated) showed an Activity of less than 5%.

For `c1ccc(CCc2nc3ccccc3o2)cc1`, the Activity was less than 5%.

In turn, `COc1ccc(CC(O)c2nc3ccccc3[nH]2)cc1OC` (configuration not stated) gave an Activity of less than 5%.

Consider `OC(Cc1ccccc1)c1nc2ccccc2[nH]1` (configuration not stated), for which the Activity is less than 5%.

As for `COc1ccc(CCc2nc3ccccc3s2)cc1OC`, the Activity is less than 5%.

In turn, `COc1ccc(CC(O)c2nc3ccccc3s2)cc1OC` (configuration not stated) came in with an Activity of less than 5%.

For the molecule `NCc1nc2ccccc2[nH]1`, the Activity is less than 5%.

Take `NC(Cc1ccccc1)c1nc2ccccc2[nH]1` (configuration not stated): the Activity was less than 5%.

For the next assay, the target named is 5-hydroxytryptamine receptor 2B (Rattus norvegicus) (UniProt P30994). The assay can be described thus: Binding affinity to 5-HT2B in Rattus norvegicus CD (rat) stomach fundus sections after 1 hr.
Chain of 5-hydroxytryptamine receptor 2B (Rattus norvegicus) (P30994 whole entry): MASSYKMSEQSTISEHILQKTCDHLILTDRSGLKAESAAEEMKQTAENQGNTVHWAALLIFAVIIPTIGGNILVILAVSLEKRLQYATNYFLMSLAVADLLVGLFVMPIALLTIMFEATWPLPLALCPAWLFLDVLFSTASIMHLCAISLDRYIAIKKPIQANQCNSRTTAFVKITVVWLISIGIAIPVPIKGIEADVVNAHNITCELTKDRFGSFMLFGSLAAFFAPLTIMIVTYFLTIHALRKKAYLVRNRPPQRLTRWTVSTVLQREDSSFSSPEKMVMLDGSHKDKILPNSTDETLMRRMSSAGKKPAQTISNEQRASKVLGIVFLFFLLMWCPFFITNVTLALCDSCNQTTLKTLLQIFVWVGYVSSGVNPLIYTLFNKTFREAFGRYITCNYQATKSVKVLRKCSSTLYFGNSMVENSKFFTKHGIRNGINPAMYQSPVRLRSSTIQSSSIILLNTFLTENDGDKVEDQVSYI
Turning to `OC(Cc1ccccc1)c1nc2ccccc2s1` (configuration not stated), the pKb was 5.25.

Molecule `COc1ccc(CCc2nc3ccccc3[nH]2)cc1OC` came in with a negative logarithm of the Kb (pKb) of 5.84.

Take `NC(Cc1ccccc1)c1nc2ccccc2s1` (configuration not stated): the negative-log Kb (pKb) was less than 5.

The molecule `c1ccc(CCc2nc3ccccc3s2)cc1` came in with a negative logarithm of the Kb (pKb) of 5.15.

`COC(=O)[C@@H]1[C@H]2C[C@H]3c4[nH]c5ccccc5c4CCN3C[C@@H]2CC[C@@H]1O` registered a pKb of 7.74.

The molecule `O/N=C(\Cc1ccccc1)c1cc2ccccc2[nH]1` gave a pKb of less than 5.

The molecule `CCNCc1nc2ccccc2[nH]1` registered a pKb of less than 5.

The molecule `COc1ccc(CC2NCCc3c2[nH]c2ccccc32)cc1OC` (configuration not stated) showed a negative-log Kb (pKb) of 9.17.

Molecule `OC(Cc1ccccc1)c1cc2ccccc2[nH]1` (configuration not stated) displayed a negative-log Kb (pKb) of less than 5.

Take `CCNC(Cc1ccccc1)c1nc2ccccc2[nH]1` (configuration not stated): the pKb worked out at 5.84.

For the molecule `COc1ccc(CCc2nc3ccccc3o2)cc1OC`, the pKb came to 5.59.

On to `OC(Cc1ccccc1)c1nc2ccccc2o1` (configuration not stated), for which the pKb was less than 5.

`COc1ccc(CC(O)c2nc3ccccc3o2)cc1OC` (configuration not stated) displayed a negative logarithm of the Kb (pKb) of 5.1.

Take `c1ccc(CCc2nc3ccccc3[nH]2)cc1`: the negative-log Kb (pKb) is 5.29.

For the molecule `O=C(Cc1ccccc1)c1cc2ccccc2[nH]1`, the negative-log Kb (pKb) was 5.58.

The molecule `NC(Cc1ccccc1)c1cc2ccccc2[nH]1` (configuration not stated) displayed a negative logarithm of the Kb (pKb) of less than 5.

On to `c1ccc(CCc2nc3ccccc3o2)cc1`, for which the pKb stood at 5.23.

Molecule `COc1ccc(CC(O)c2nc3ccccc3[nH]2)cc1OC` (configuration not stated) returned a pKb of less than 5.

`OC(Cc1ccccc1)c1nc2ccccc2[nH]1` (configuration not stated) showed a negative-log Kb (pKb) of 5.16.

Turning to `COc1ccc(CCc2nc3ccccc3s2)cc1OC`, the pKb came out at 5.61.

Molecule `COc1ccc(CC(O)c2nc3ccccc3s2)cc1OC` (configuration not stated) displayed a negative logarithm of the Kb (pKb) of 5.16.

`NCc1nc2ccccc2[nH]1` came in with a negative logarithm of the Kb (pKb) of less than 5.

As to `NC(Cc1ccccc1)c1nc2ccccc2[nH]1` (configuration not stated), the negative logarithm of the Kb (pKb) was less than 5.

The target is the same in another assay. The assay can be described thus: Antagonist activity at 5-HT2B in Rattus norvegicus CD (rat) stomach fundus sections assessed as inhibition of serotonin-induced contractile response at 10 '-5 M after 1 hr.
For `NC(Cc1ccccc1)c1nc2ccccc2s1` (configuration not stated), the inhibition entry was “inactive”.

With `CCNCc1nc2ccccc2[nH]1`, the inhibition entry was “inactive”.

With `OC(Cc1ccccc1)c1nc2ccccc2o1` (configuration not stated), the inhibition result was “inactive”.

Turning to `COc1ccc(CC(O)c2nc3ccccc3[nH]2)cc1OC` (configuration not stated), the inhibition entry was “inactive”.

Regarding `NCc1nc2ccccc2[nH]1`, the inhibition result was “inactive”.

Take `NC(Cc1ccccc1)c1nc2ccccc2[nH]1` (configuration not stated): the inhibition entry was “inactive”.

For the next assay the target is unchanged. The assay can be described thus: Non-surmountable antagonist activity at 5-HT2B in Rattus norvegicus CD (rat) stomach fundus sections assessed as inhibition of serotonin-induced contractile response after 1 hr.
For `OC(Cc1ccccc1)c1nc2ccccc2s1` (configuration not stated), the inhibition entry was “inactive”.

Take `COc1ccc(CCc2nc3ccccc3[nH]2)cc1OC`: the inhibition result was “inactive”.

As for `NC(Cc1ccccc1)c1nc2ccccc2s1` (configuration not stated), the inhibition result is “inactive”.

For `c1ccc(CCc2nc3ccccc3s2)cc1`, the inhibition result is “inactive”.

In the case of `O/N=C(\Cc1ccccc1)c1cc2ccccc2[nH]1`, the inhibition entry is “inactive”.

Regarding `CCNCc1nc2ccccc2[nH]1`, the inhibition entry is “inactive”.

Take `OC(Cc1ccccc1)c1cc2ccccc2[nH]1` (configuration not stated): the inhibition result was “inactive”.

Consider `CCNC(Cc1ccccc1)c1nc2ccccc2[nH]1` (configuration not stated), for which the inhibition result was “inactive”.

As to `COc1ccc(CCc2nc3ccccc3o2)cc1OC`, the inhibition result was “inactive”.

`OC(Cc1ccccc1)c1nc2ccccc2o1` (configuration not stated): the inhibition entry was “inactive”.

In the case of `COc1ccc(CC(O)c2nc3ccccc3o2)cc1OC` (configuration not stated), the inhibition entry is “inactive”.

Turning to `c1ccc(CCc2nc3ccccc3[nH]2)cc1`, the inhibition result is “inactive”.

Take `O=C(Cc1ccccc1)c1cc2ccccc2[nH]1`: the inhibition entry is “inactive”.

Consider `NC(Cc1ccccc1)c1cc2ccccc2[nH]1` (configuration not stated), for which the inhibition result is “inactive”.

For `c1ccc(CCc2nc3ccccc3o2)cc1`, the inhibition result is “inactive”.

Take `COc1ccc(CC(O)c2nc3ccccc3[nH]2)cc1OC` (configuration not stated): the inhibition entry is “inactive”.

Regarding `OC(Cc1ccccc1)c1nc2ccccc2[nH]1` (configuration not stated), the inhibition entry was “inactive”.

In the case of `COc1ccc(CCc2nc3ccccc3s2)cc1OC`, the inhibition entry is “inactive”.

As for `COc1ccc(CC(O)c2nc3ccccc3s2)cc1OC` (configuration not stated), the inhibition result is “inactive”.

Consider `NCc1nc2ccccc2[nH]1`, for which the inhibition entry is “inactive”.

In the case of `NC(Cc1ccccc1)c1nc2ccccc2[nH]1` (configuration not stated), the inhibition result was “inactive”.

The next assay addresses 5-hydroxytryptamine receptor 2A (Rattus norvegicus) (UniProt P14842). The assay can be described thus: Displacement of [3H]ketansarin from 5-HT2A in Rattus norvegicus CD (rat) […] sections at 10 uM after 1 hr. Background: Loss of bound radioactivity is the signal in a displacement assay; it reports binding, not function.
In turn, `OC(Cc1ccccc1)c1nc2ccccc2s1` (configuration not stated) showed an Activity of less than 5%.

Take `COc1ccc(CCc2nc3ccccc3[nH]2)cc1OC`: the Activity was less than 5%.

`NC(Cc1ccccc1)c1nc2ccccc2s1` (configuration not stated) registered an Activity of less than 5%.

The molecule `c1ccc(CCc2nc3ccccc3s2)cc1` returned an Activity of less than 5%.

Consider `O/N=C(\Cc1ccccc1)c1cc2ccccc2[nH]1`, for which the Activity was less than 5%.

In the case of `CCNCc1nc2ccccc2[nH]1`, the Activity was less than 5%.

In the case of `OC(Cc1ccccc1)c1cc2ccccc2[nH]1` (configuration not stated), the Activity was less than 5%.

In the case of `CCNC(Cc1ccccc1)c1nc2ccccc2[nH]1` (configuration not stated), the Activity was less than 5%.

The molecule `COc1ccc(CCc2nc3ccccc3o2)cc1OC` had an Activity of less than 5%.

Turning to `OC(Cc1ccccc1)c1nc2ccccc2o1` (configuration not stated), the Activity is less than 5%.

The molecule `COc1ccc(CC(O)c2nc3ccccc3o2)cc1OC` (configuration not stated) displayed an Activity of less than 5%.

Regarding `c1ccc(CCc2nc3ccccc3[nH]2)cc1`, the Activity is less than 5%.

The molecule `O=C(Cc1ccccc1)c1cc2ccccc2[nH]1` displayed an Activity of less than 5%.

`NC(Cc1ccccc1)c1cc2ccccc2[nH]1` (configuration not stated) had an Activity of less than 5%.

The molecule `c1ccc(CCc2nc3ccccc3o2)cc1` showed an Activity of less than 5%.

In turn, `COc1ccc(CC(O)c2nc3ccccc3[nH]2)cc1OC` (configuration not stated) returned an Activity of less than 5%.

`OC(Cc1ccccc1)c1nc2ccccc2[nH]1` (configuration not stated) had an Activity of less than 5%.

Molecule `COc1ccc(CCc2nc3ccccc3s2)cc1OC` yielded an Activity of less than 5%.

`COc1ccc(CC(O)c2nc3ccccc3s2)cc1OC` (configuration not stated): the Activity was less than 5%.

Turning to `NCc1nc2ccccc2[nH]1`, the Activity was less than 5%.

In the case of `NC(Cc1ccccc1)c1nc2ccccc2[nH]1` (configuration not stated), the Activity was less than 5%.

What is called pKb is −log10 of the Kb, conventionally taken in molar units. Read a low pKb as a large Kb.
